Measured values from ChEMBL document CHEMBL5584263, “Novel inhibitor N-cyclopropyl-4-((4-((4-(trifluoromethyl)phenyl)sulfonyl)piperazin-1-yl)methyl)benzamide attenuates RANKL-mediated osteoclast differentiation in vitro” (Bioorg Med Chem Lett, 2024).
Calls of active or inactive are those of the source. The rule behind the calls is not given here.

Legend:
BMMC [1] = assay: Inhibition of osteoclastogenesis in mouse BMMC by TRAP staining based assay; format: functional, cell-based
[2] = Partition coefficient, logP of compound; format: physicochemical; conditions: octanol/water
BMMC [3] = assay: Inhibition of osteoclastogenesis in mouse BMMC at 2 uM by TRAP staining based assay; format: functional
BMMC [4] = assay: Inhibition of osteoclastogenesis in mouse BMMC at 1 uM by TRAP staining based assay; format: functional
BMMC [5] = assay: Inhibition of osteoclastogenesis in mouse BMMC at 0.5 uM by TRAP staining based assay; format: functional
BMMC [6] = assay: Inhibition of osteoclast differentiation in mouse BMMCs assessed as reduction in ACP5 mRNA expression at 1.25 uM incubated for 3 days by qRT-PCR analysis; format: functional, cell-based; conditions: time 3.0 day
BMMC [7] = assay: Inhibition of osteoclast differentiation in mouse BMMCs assessed as reduction in Cathepsin K protein expression at 1.25 uM incubated for 3 days by immunoblotting analysis; format: functional, cell-based; conditions: time 3.0 day
BMMC [8] = assay: Inhibition of osteoclast differentiation in mouse BMMCs assessed as reduction in Dc-stamp mRNA expression at 1.25 uM incubated for 3 days by qRT-PCR analysis; format: functional, cell-based; conditions: time 3.0 day
BMMC [9] = assay: Inhibition of osteoclast differentiation in mouse BMMCs assessed as reduction in Nfatc1 mRNA expression at 1.25 uM incubated for 3 days by qRT-PCR analysis; format: functional, cell-based; conditions: time 3.0 day
BMMC [10] = assay: Inhibition of osteoclast differentiation in mouse BMMCs assessed as reduction in Cathepsin K mRNA expression at 1.25 uM incubated for 3 days by qRT-PCR analysis; format: functional, cell-based; conditions: time 3.0 day
BMMC [11] = assay: Inhibition RANKL-induced bone resorption in mouse BMMC at 0.625 to 2.5 uM incubated for 4 days by immunofluorescence assay; format: functional, cell-based; conditions: dose 0.625-2.5 µM, time 4.0 day
BMMC [12] = assay: Inhibition of RANKL mediated […] differentiation in mouse BMMC incubated for 4 days by TRAP staining based assay; format: functional, cell-based; conditions: dose 0.25-2 µM, time 4.0 day
BMMC [13] = assay: Inhibition of osteoclast differentiation in mouse BMMCs assessed as reduction in Mmp9 mRNA expression at 1.25 uM incubated for 3 days by qRT-PCR analysis; format: functional, cell-based; conditions: time 3.0 day
Calvarial osteoblast = assay: Effect on cell viability in osteoblast cells (unknown origin) upto 4 uM incubated for 48 hrs by MTT assay; format: toxicity, cell-based
BMMC [14] = assay: Inhibition of osteoclast differentiation in mouse BMMCs assessed as reduction in c-fos protein expression at 1.25 uM incubated for 3 days by immunoblotting analysis; format: functional, cell-based; conditions: time 3.0 day
BMMC [15] = assay: Inhibition RANKL-induced F-actin ring formation in mouse BMMC at 0.625 to 2.5 uM incubated for 4 days by immunofluorescence assay; format: functional, cell-based; conditions: dose 0.625-2.5 µM, time 4.0 day
BMMC [16] = assay: Inhibition of osteoclast differentiation in mouse BMMCs assessed as reduction in […] mRNA expression at 1.25 uM incubated for 3 days by qRT-PCR analysis; format: functional, cell-based; conditions: time 3.0 day
Mus musculus = assay: Inhibition of osteoclast differentiation in ovariectomized osteoporosis mouse model at 10 mg/kg, ip administered for 4 weeks; format: functional, organism-based
BMMC [17] = assay: Inhibition of osteoclastogenesis in mouse BMMC assessed as reduction in fusion of mononuclear osteoclast cells to form large multinucleated osteoclast cells at 0.25 to 2 uM; format: functional, cell-based; conditions: dose 0.25-2 µM
[18] = Effect on mouse BMMCs viability at below 10 uM incubated for 48 hrs by MTT assay; format: toxicity, cell-based; conditions: bmmc
BMMC [19] = assay: Inhibition of osteoclast differentiation in mouse BMMCs assessed as reduction in NFATc1 protein expression at 1.25 uM incubated for 3 days by immunoblotting analysis; format: functional, cell-based; conditions: time 3.0 day
BMMC [20] = assay: Inhibition of RANKL mediated […] differentiation in mouse BMMC at 0.25 to 2 uM incubated for 4 days by TRAP staining based assay; format: functional, cell-based; conditions: dose 0.25-2 µM, time 4.0 day

| Structure (SMILES) | IC50 (BMMC [1]) | logP [2] | inhibition at 2 µM (BMMC [3]) | inhibition at 1 µM (BMMC [4]) | inhibition at 0.5 µM (BMMC [5]) | also measured |
| --- | --- | --- | --- | --- | --- | --- |
| O=C(NC1CC1)c1ccc(CN2CCN(S(=O)(=O)c3cccc(Cl)c3)CC2)cc1 | 3030 nM | 3.3 | 71.7% | 25.2% | -49.2% |  |
| CC(C)(C)c1ccc(S(=O)(=O)N2CCN(Cc3ccc(C(=O)NC4CC4)cc3)CC2)cc1 | 550 nM | 4.1 | 100% | 74.1% | 23.6% |  |
| COc1ccc(S(=O)(=O)N2CCN(Cc3ccc(C(=O)NC4CC4)cc3)CC2)cc1 | 221000 nM | 2.6 | 10.6% | -13.8% | -9.9% |  |
| O=C(NC1CC1)c1ccc(CN2CCN(S(=O)(=O)c3ccc(-c4ccccc4)cc3)CC2)cc1 | 750 nM | 4.1 | 100% | 64.6% | 9.56% |  |
| O=C(NC1CC1)c1ccc(CN2CCN(S(=O)(=O)c3ccc(C(F)(F)F)cc3)CC2)cc1 | 640 nM | 3.5 | 96.8% | 72% | 17.7% | inhibition (BMMC [6]): Active; inhibition (BMMC [7]): Active; inhibition (BMMC [8]): Active; inhibition (BMMC [9]): Active; inhibition (BMMC [10]): Active; inhibition (BMMC [11]): Active; inhibition (BMMC [12]): Dose-Dependent Effect; inhibition (BMMC [13]): Active; Activity (Calvarial osteoblast): Non-Toxic; inhibition (BMMC [14]): Active; inhibition (BMMC [15]): Active; inhibition (BMMC [16]): Active; inhibition (Mus musculus): inactive; inhibition (BMMC [17]): Active; Activity [18]: Non-Toxic; inhibition (BMMC [19]): Active; inhibition (BMMC [20]): Active |
| CC(=O)c1ccc(S(=O)(=O)N2CCN(Cc3ccc(C(=O)NC4CC4)cc3)CC2)cc1 | 7240 nM | 2.3 | 14.7% | 16.9% | 17.6% |  |
| O=C(NC1CC1)c1ccc(CN2CCN(S(=O)(=O)c3ccc([N+](=O)[O-])cc3)CC2)cc1 | 1690 nM | 2.6 | 46.7% | 25.5% | 48.9% |  |
| CCCCCCCCS(=O)(=O)N1CCN(Cc2ccc(C(=O)NC3CC3)cc2)CC1 | 1140 nM | 5.7 | 84% | 33.2% | 23.9% |  |
| COc1cccc(S(=O)(=O)N2CCN(Cc3ccc(C(=O)NC4CC4)cc3)CC2)c1 |  | 2.7 | -5.21% | -20.9% | -22.8% |  |
